Laboratory results: patent US20080227853A1, “ANDROGENE MEMBRANE RECEPTOR AGONIST” (BIONATURE E. A. LIMITED, priority 2007, published 2008)

Test system: T47D human breast cancer cells
Assay: Actin cytoskeleton modification in T47D cells (rhodamine-phalloidin staining)
Assay type: cell-based
Details: T47D cells incubated 24 hours, FIG. 3

Compound | modifications of the actin cytoskeleton
Oc1cc(O)c2c(c1)O[C@H](c1ccc(O)c(O)c1)[C@H](O)[C@H]2c1c(O)cc(O)c2c1O[C@H](c1ccc(O)c(O)c1)[C@H](O)C2 [B2] | polymerization and sub-membrane redistribution
Oc1cc(O)c2c(c1)O[C@H](c1ccc(O)c(O)c1)[C@H](O)[C@H]2c1c(O)cc2c(c1O)C[C@@H](O)[C@@H](c1ccc(O)c(O)c1)O2 [B5] | polymerization and sub-membrane redistribution
catechin | polymerization and sub-membrane redistribution
